Measured values taken from patent EP4711366A1, “PYRIMIDO MACROHETEROCYCLIC COMPOUND AS WEE1-YES DUAL-TARGET INHIBITOR AND USE THEREOF” (Mindrank AI Ltd., priority 2023, dated 2024).

Assays:
YES1 kinase = YES1 kinase (Homo sapiens, UniProt P07947); test: YES1 protein kinase inhibitory activity assay (HTRF); format: biochemical; details: for IC50: HTRF, YES1 kinase, ATP 10 µM; for inhibition of the Yes target (in words): summary statement on the assay results
Protocol: In this experiment, the capability of the compound MRANK-106 of the present disclosure to inhibit kinase activity was assessed by an HTRF method using a drug screening system based on the YES1 kinase.
Table 3-1. Information about reagents and consumables
The enzymatic activity conditions and HTRF system formulation are shown in Table 3-3; the experimental conditions for the kinase activity assay are shown in Table 3-4. Table 3-3. HTRF system formulation
Table 3-4. The experimental conditions for the kinase activity assay
The test compound MRANK-106 was dissolved in DMSO, and the solution was vortexed and shaken for thorough mixing. The solution was serially diluted 3-fold with DMSO, with the initial concentration being 503 nM.
① A 2× ATP/substrate solution and a 2× kinase solution were formulated using a kinase reaction buffer.
② 50 nL of the compound dilution was transferred to a 384 detection plate using Echo 655. After centrifugation, 2.5 µL of a 2× kinase solution was added to the 384 detection plate. The plate was centrifuged at 1000 rpm for 1 min and incubated at 25 °C for 10 min.
② 2.5 µL of the 2× substrate and ATP solution was added to the 384 detection plate, and the plate was centrifuged at 1000 rpm for 1 min and incubated at 25 °C for 60 min.
④ A 2× XL665 and antibody detection reagent was formulated using a detection buffer.
⑤ 5 µL of a kinase detection reagent was added to the detection plate, and the plate was incubated at 25 °C. The plate was centrifuged at 1000 rpm for 1 min and incubated at 25 °C for 1 h.
⑥ The fluorescence signals at 620 nm (Cryptate) and 665 nm (XL665) were read using a BMG high-throughput drug-screening multi-mode microplate reader.
With the reading of the negative control set as an inhibition rate of 0% and the reading of the positive control set as an inhibition rate of 100%, the inhibition rate of each test solution was calculated using the following formula: [formula] • Datapositive control: the average of the positive control well values • Datanegative control : the average of the negative control well values
The IC50 (half maximal inhibitory concentration) of the compound was obtained using the following nonlinear fitting formulas: Y = Bottom + (Top−Bottom)/(1+10^(∧)((LogIC50−X)*HillSlope)) [formula] • X: the log value of the compound concentration • Y: the inhibition rate (% inh) of the compound
The Z' factor calculation equation: Z′ = 1−3(SDmin+SDmax)/(AVEmax−AVEmin) [formula] where: • Min is the positive control Data value, and Max is the negative control DMSO Data value; • SD stands for standard deviation, and AVE stands for average.

A427 cells = test: Tumor cell proliferation inhibitory activity assay (CCK-8); format: cell-based, Human; details: for IC50: CCK-8; for activity in inhibiting cancer cell proliferation compared with reference compound Debio 0123 or ZN-c3: comparison in words
Protocol: Human lung cancer A427 cells are cancer cells reported to be sensitive to wee1 inhibitors. In this assay, the anti-cancer effects of the compounds of the present disclosure were verified by assessing the activity of the test substances in inhibiting A427 cell proliferation.
A427 cells were cultured according to the cell culture instructions, and cells in the logarithmic growth phase were collected, counted, resuspended in a complete culture medium, and inoculated into a 96-well plate at a cell concentration of 100 µL/3000 cells/well. The cells were incubated in an incubator at 37 °C with 100% relative humidity and 5% CO2 for 24 h.
The compounds to be tested were dissolved in DMSO and diluted 4-fold with a culture medium from 10 µM to 10 concentration gradients.
The culture medium waste was pipetted off, and 100 µL of the formulated culture medium of the compound to be tested was added to each well. The cells were incubated in an incubator at 37 °C with 100% relative humidity and 5% CO2 for 72 h.
The plate was taken out, the CCK-8 reagent was added at 10 µL/well, and the plate was incubated in an incubator at 37 °C for 2-4 h.
The cell growth inhibition rates of the drugs were calculated using the following formula: Cell growth inhibition rate% = [(Ac−As)/(Ac−Ab)] × 100% [formula] • As: the OA of the samples (cells + CCK-8 + compounds to be tested) • Ac: the OA of the normal growth cell control (cells + CCK-8) • Ab: the OA of the blank control (culture medium + CCK-8)
IC50 curve fitting was performed using the software Graphpad Prism 6 and the calculation formula XY-analysis/Nonlinear regression(curve fit)/Dose response-Inhibition/log(inhibitor)vs. response-Variable slope(four parameters), and the IC50 values were calculated. Table 1. Data analysis and results for some representative compounds

Wee1 kinase = Wee1 kinase (Homo sapiens, UniProt P30291); test: WEE1 protein kinase inhibitory activity assay (ADP-GLO luminescence); format: biochemical; details: for IC50: Wee1 10 ng/well, ATP 10 µM, 3 h, 37 °C; for inhibition of the Weel target (in words): summary statement on the assay results
Protocol: The influence of the compound MRANK-106 of the present disclosure on the kinase activity of Weel was assessed using an in vitro kinase reaction system.
Table 2-1. Information about reagents and consumables
① 1× kinase buffer: A 5× kinase buffer was diluted with ddH2O to make a 1× kinase buffer. Table 2-3. The reagent components added to the 1× kinase buffer
③ 5× enzyme working solution: The optimization of the enzyme concentration had been completed in previous work, and the concentration of the reagent used in the screening is shown in Table 2-4. A 5× enzyme working solution of the enzyme was formulated using the 1× kinase buffer.
④ Compound formulation: A 10 mM mother liquor was formulated using DMSO, aliquoted, and then stored at -20 °C. Immediately before use, the mother liquor was thawed, diluted with DMSO to 1 mM, serially diluted 4-fold to 10 concentration points, and then 40-fold diluted with the 1× kinase buffer to give a 2.5× working solution. Table 2-4. The experimental conditions for the kinase activity assay
After the above reagents were formulated and equilibrated to room temperature, 4 µL of the diluted solution of the compound to be tested and 2 µL of the formulated enzyme solution were added to reaction wells. After shaking and centrifugation, the plate was incubated at room temperature for 15 min, and 4 µL of the ATP solution was then added to start a kinase reaction. After 3 h of reaction at 37 °C, 10 µL of an ADP-GLO reagent was added. After thorough mixing, the mixture was left to react at room temperature for 40 min, and 20 µL of a detection reagent was then added. After 30 min of reaction at room temperature, the luminescence signals were detected using a SpectraMax L instrument. Two independent duplicate assays were performed. The inhibition rate of each well was calculated based on all activity wells and background signal wells, with an average calculated for duplicate wells. Meanwhile, the inhibition rate was plotted using the professional graphing and analysis software PRISM 9.0, and the IC50 was calculated.
The inhibition rates of the compounds to be tested against the kinase activity of Wee1 were calculated using the following formula: Inhibition rate% = (Lumvehicle−Lumcompound)/(Lumvehicle−Lumblank) × 100% [formula] • Lumcompound: the luminescence of the sample treatment groups • Lumvehicle: the luminescence of the solvent control group • Lumblank: the luminescence of the blank group

[1] = Homo sapiens, A-427, 72 h compound incubation

Wee1 kinase, sequence (P30291 whole entry): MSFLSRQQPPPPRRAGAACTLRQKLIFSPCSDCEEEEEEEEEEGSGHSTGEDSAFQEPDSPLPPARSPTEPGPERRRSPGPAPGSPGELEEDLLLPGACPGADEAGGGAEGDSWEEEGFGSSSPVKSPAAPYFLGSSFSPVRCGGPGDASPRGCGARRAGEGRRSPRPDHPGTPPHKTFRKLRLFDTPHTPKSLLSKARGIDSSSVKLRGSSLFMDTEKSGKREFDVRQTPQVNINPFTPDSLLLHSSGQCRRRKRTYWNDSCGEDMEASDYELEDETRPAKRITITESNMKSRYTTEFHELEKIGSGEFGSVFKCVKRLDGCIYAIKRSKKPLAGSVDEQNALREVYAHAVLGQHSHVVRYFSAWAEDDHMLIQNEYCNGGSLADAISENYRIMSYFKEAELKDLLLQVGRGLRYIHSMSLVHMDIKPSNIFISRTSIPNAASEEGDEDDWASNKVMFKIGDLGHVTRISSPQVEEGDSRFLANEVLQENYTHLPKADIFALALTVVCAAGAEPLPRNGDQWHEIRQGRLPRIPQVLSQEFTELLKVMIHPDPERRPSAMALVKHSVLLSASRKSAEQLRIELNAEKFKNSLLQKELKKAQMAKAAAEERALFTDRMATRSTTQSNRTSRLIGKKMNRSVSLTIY
YES1 kinase, sequence (P07947 whole entry): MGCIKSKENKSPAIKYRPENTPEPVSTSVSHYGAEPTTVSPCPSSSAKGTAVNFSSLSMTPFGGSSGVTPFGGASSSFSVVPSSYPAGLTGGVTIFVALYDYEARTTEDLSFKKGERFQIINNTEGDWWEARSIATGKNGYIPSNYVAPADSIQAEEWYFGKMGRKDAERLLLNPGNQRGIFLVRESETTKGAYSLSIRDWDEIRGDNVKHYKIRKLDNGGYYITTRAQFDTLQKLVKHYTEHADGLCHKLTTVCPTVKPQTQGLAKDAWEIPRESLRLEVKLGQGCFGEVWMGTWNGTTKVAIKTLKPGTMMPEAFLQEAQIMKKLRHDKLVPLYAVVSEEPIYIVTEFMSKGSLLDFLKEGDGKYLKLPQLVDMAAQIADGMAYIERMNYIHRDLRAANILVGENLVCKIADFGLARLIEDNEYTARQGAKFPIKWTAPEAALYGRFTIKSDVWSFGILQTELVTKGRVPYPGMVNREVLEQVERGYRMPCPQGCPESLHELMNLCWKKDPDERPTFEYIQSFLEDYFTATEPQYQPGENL

| SMILES | IC50 (YES1 kinase) [nM] | inhibition of the Yes target (in words) (YES1 kinase) | IC50 (A427 cells; [1]) [nM] | IC50 (Wee1 kinase) [nM] | inhibition of the Weel target (in words) (Wee1 kinase) | IC50 (A427 cells; 72 h compound incubation) [nM] | activity in inhibiting cancer cell proliferation compared with reference compound Debio 0123 or ZN-c3 (A427 cells) |
| --- | --- | --- | --- | --- | --- | --- | --- |
| CCOP1(=O)CCN(c2ccc(Nc3ncc4c(=O)n5n(c4n3)-c3cccc(n3)C(C)(O)CCC=CC5)cc2C)CC1 (racemic) [Compound 182, (Z)-2-((4-(4-ethoxy-4-oxido-1,4-azaphosphinan-1-yl)-3-methylphenyl)amino)-12-hydroxy-12-methyl-7,10,11,12-tetrahydro-5H-13,17-(azeno)pyrimido[4',5':3,4]pyrazolo[1,2-a][1,2]diazacyclotridecin-5-one] | 19.9 | strongly inhibited | 160 | 30.1 | strongly inhibited |  |  |
| Cc1cc(Nc2ncc3c(=O)n4n(c3n2)-c2cccc(n2)C(C)(O)CC/C=C\C4)ccc1NC1CCN(C)CC1 (single isomer, unassigned) [Compound 203A] |  |  | 71 | 13.2 |  |  | several times to several dozen times higher |
| Cc1cc(Nc2ncc3c(=O)n4n(c3n2)-c2cccc(n2)C(C)(O)CCC=CC4)ccc1OC1(C)CCN(C)CC1 (stereo not shown) [Compound 89, (Z)-2-((4-((1,4-dimethylpiperidin-4-yl)oxy)-3-methylphenyl)amino)-12-hydroxy-12-methyl-7,10,11,12-tetrahydro-5H-13,17-(azeno)pyrimido[4',5':3,4]pyrazolo[1,2-a][1,2]diazacyclotridecin-5-one] | 18.5 | strongly inhibited | 219 | 66.8 | strongly inhibited |  |  |
| COc1cc(Nc2ncc3c(=O)n4n(c3n2)-c2cccc(n2)[C@](C)(O)CCC=CC4)ccc1OC1CCN(C)CC1 [Compound 143, (R,Z)-12-hydroxy-2-((3-methoxy-4-((1-methylpiperidin-4-yl)oxy)phenyl)amino)-12-methyl-7,10,11,12-tetrahydro-5H-13,17-(azeno)pyrimido[4',5':3,4]pyrazolo[1,2-a][1,2]diazacyclotridecin-5-one] |  |  | 65 |  |  |  | several times to several dozen times higher |
| Cc1cc(Nc2ncc3c(=O)n4n(c3n2)-c2cccc(n2)C(C)(O)CCC=CC4)ccc1OC1CN(C)[C@H]1C (stereo partly drawn) [Compound 202, (Z)-2-((4-(((2S)-1,2-dimethylazetidin-3-yl)oxy)-3-methylphenyl)amino)-12-hydroxy-12-methyl-7,10,11,12-tetrahydro-5H-13,17-(azeno)pyrimido[4',5':3,4]pyrazolo[1,2-a][1,2]diazacyclotridecin-5-one] | 18.8 | strongly inhibited | 78 | 16.4 | strongly inhibited |  | several times to several dozen times higher |
| Cc1cc(Nc2ncc3c(n2)N(C)CN(c2c(Cl)cccc2Cl)C3=O)ccc1C1CCN(C)CC1 [Debio 0123, reference compound] |  |  |  |  |  | 1610 |  |

Further lines, with some results ahead:

| IC50 (YES1 kinase) [nM] | inhibition of the Yes target (in words) (YES1 kinase) | IC50 (A427 cells; [1]) [nM] | IC50 (Wee1 kinase) [nM] | inhibition of the Weel target (in words) (Wee1 kinase) | IC50 (A427 cells; 72 h compound incubation) [nM] | SMILES | activity in inhibiting cancer cell proliferation compared with reference compound Debio 0123 or ZN-c3 (A427 cells) |
| --- | --- | --- | --- | --- | --- | --- | --- |
| 5.8 | strongly inhibited | 15 | 6.5 | strongly inhibited |  | [2H]C1(Oc2ccc(Nc3ncc4c(=O)n5n(c4n3)-c3cccc(n3)[C@](C)(O)CCC=CC5)cc2C)CCN(C)CC1 (single isomer, unassigned) [Compound 172A] | several times to several dozen times higher |
|  |  | 152 |  |  |  | Cc1cc(Nc2ncc3c(=O)n4n(c3n2)-c2cccc(n2)[C@](C)(O)CCCCC4)ccc1OC1CCN(C)CC1 [Compound 28, (R)-12-hydroxy-12-methyl-2-((3-methyl-4-((1-methylpiperidin-4-yl)oxy)phenyl)amino)-7,8,9,10,11,12-hexahydro-5H-13,17-(azeno)pyrimido[4',5':3,4]pyrazolo[1,2-a][1,2]diazacyclotridecin-5-one] |  |
|  |  | 163 |  |  |  | Cc1cc(Nc2ncc3c(=O)n4n(c3n2)-c2cccc(n2)[C@](C)(O)CCC=CC4)ccc1OC1CCN(C2COC2)CC1 [Compound 205, (R,Z)-12-hydroxy-12-methyl-2-((3-methyl-4-((1-(oxetan-3-yl)piperidin-4-yl)oxy)phenyl)amino)-7,10,11,12-tetrahydro-5H-13,17-(azeno)pyrimido[4',5':3,4]pyrazolo[1,2-a][1,2]diazacyclotridecin-5-one] |  |
|  |  | 144 |  |  |  | CN1CCN(Cc2ccc(Nc3ncc4c(=O)n5n(c4n3)-c3cccc(n3)C(C)(O)CCC=CC5)cc2)CC1 (stereo not shown) [Compound 214, (Z)-12-hydroxy-12-methyl-2-((4-((4-methylpiperazin-1-yl)methyl)phenyl)amino)-7,10,11,12-tetrahydro-5H-13,17-(azeno)pyrimido[4',5':3,4]pyrazolo[1,2-a][1,2]diazacyclotridecin-5-one] |  |
